For data set [1], the system named is hepatic glutatione-S-transferase. Nature of the data set: activity of hepatic glutathione-S-transferase.
Data set [2] can be described thus: half-life in animal (dog) and in man. The note with it: in vivo.
In the next data set the test system is Trichomonas Vaginalis. The format is in vivo, humans. On the procedure:
The clinical investigation involved 42 patients, aged from 22 to 55, affected by vaginitis induced by Trichomonas Vaginalis.
The diagnosis was determined through bacterioscopic, cultural and May-Grunwald Giemsa examinations, which were repeated 3 days after the end of the treatment. The 42 Patients were splitted into 6 groups of 7 patients each.

A short description of data set [3]: solubility in solvents and water. The data set is classed as physicochemical. How it is done:
According to the present invention there is provided a compound of formula (I) in which R1 is -OCH3 and R is CH3, which is a crystalline yellow compound, which decomposes upon heating to 170°C, is soluble (1 : 100) in methanol and (1 : 30) in dimethylformamide, but insoluble in water.

[4] abbreviates: treated orally (1st, 2nd, 3rd, 4th groups).

Experimental findings from EP0045990A1, “Novel antibacterial and antiprotozoal derivatives, a process for the preparation thereof, and related pharmaceutical compositions” (Farmatis S.r.l., priority 1980, dated 1982) are described below.

Structures are written as SMILES.

Take `Cc1ncc([N+](=O)[O-])n1CCO` [metronidazole, 1-(2-hydroxyethyl)-2-methyl-5-nitro-imidazole]: the “activity of the hepatic glutatione-S-transferase” value in data set [1] is recorded as “does not exert this action”. Besides, in data set [2], the half-life is 7.3 h.
With `COc1ccc(OC(=O)CCC(=O)Nc2nccc(C=Cc3ncc([N+](=O)[O-])n3C)n2)c(C(C)(C)C)c1` [p-methoxy-o-tert-butyl-phenol ester of 5-nitro-imidazolyl-2-ethenyl-(2-amino-pyrimidyl)-N-succinic acid], the complete recovery in the data set on Trichomonas Vaginalis (5th group, treated only locally) is recorded as 85%. Also, in the data set on Trichomonas Vaginalis (5th group, treated only locally, 3 vaginal tablets of 200 mg per day for 5 days), the “Trichomonas vaqinalis disappeared, number of patients” value was 6 out of 7 patients. In the data set on Trichomonas Vaginalis (6th group, treated both orally and locally), the positive results is given as 100%. Also, the “activity against Trichomoniasis” value in the data set on Trichomonas Vaginalis (42 patients) was “highly active”. Also, the tolerance in patients result in the data set on Trichomonas Vaginalis (human, in vivo, po) was “well tolerated”. Also, in the data set with Trichomonas Vaginalis (setting [4]), the complete success is 98% and the “complete success, number of patients” value is 25 patiens out of 28. For the same compound, the solubility in water result in data set [3] is given as “insoluble”.

As a reminder, the half-life is how long it takes for the measured level to halve.
